# Tested on: VEGF
# Assay: VEGF-ELISA assay, VEGF secretion from HL-1 cardiomyocyte cell line
# Assay type: cell-based, murine
# Conditions: VEGF production; HL-1 cells, 18 hr, 10 concentrations 200 nM to 100 μM; read-out: EC50 (concentration of compound that induces the production of an amount of VEGF equal to half the maximum amount of VEGF induced by the compound)
# Procedure: Any compound of the present invention can be screened by a VEGF-ELISA assay. VEGF secretion is assayed in the HL-1 cardiomyocyte cell line as described in Claycomb. W. C., “HL-1 cells: a cardiac muscle cell line that contracts and retains phenotypic characteristics of the adult cardiomyocyte”, Proc. Natl. Acad. Sci U.S.A., Vol. 95, pp. 2979-84 (1998). For experiments, HL-1 cells are plated in 96-well plates at a density of 2×10^4 cells per well in growth medium: EXCEL 320 media (JRH Biosciences, Lenexia, Kans.) plus 10% fetal bovine serum (BioWhitaker), 100 nM retinoic acid (Sigma, St. Louis, Mo.), 10 μM norepinephrine (Sigma), 10 μg/ml insulin (Life Technologies, Grand Island, N.Y.), 1× non-essential amino acid supplement (Life Technologies), 50 μg/ml endothelial cell growth supplement (Upstate Biotechnology, Lake Placid, N.Y.), 100 units/ml penicillin, 100 units/ml streptomycin (Life Technologies). After 24 hrs, the media is replaced with a low-growth media (HL-1 media with 2% fetal bovine serum and without endothelial cell growth supplement) containing test compounds with 0.5% dimethyl sulfoxide (DMSO). After 18 hrs, conditioned media from the treated cells was assayed for VEGF content with a Murine VEGF-ELISA kit (R&D Systems, Minneapolis, Minn.). The amount of VEGF secreted into the media over an 18 hr period is normalized to positive control wells which are treated with a maximally effective concentration (1 mM) of deferoxamine mesylate (Sigma, St. Louis) and are reported as “percent activity,” where the VEGF in unstimulated wells is defined as 0% and the VEGF in wells treated with 1 mM deferoxamine is defined as 100%. Potency is determined by stimulating cells with 10 concentrations of test compounds (200 nM to 100 μM) and fitting the data to a variable slope sigmoidal dose-response curve using GraphPad Prism version 3.00 for Windows 95 (GraphPad Software, San Diego, Calif.). Determinations for each test compound are performed in three separate experiments and the means ± standard deviation of the […] and maximum response are evaluated. Compounds for pharmaceutical use are selected based upon the greatest percent activity.
row,Compound,EC50
1,"Brc1ccc(N2N=C(c3ccccn3)CC2c2ccccc2)cc1 (centres unmarked) [Example 15, 2-[1-(4-Bromo-phenyl)-5-phenyl-4,5-dihydro-1H-pyrazol-3-yl]-pyridine]",6.3 µM
2,"CN1N=C(c2ccccc2O)CC1c1ccccn1 (centres unmarked) [Example 10, 2-(1-Methyl-5-pyridin-2-yl-4,5-dihydro-1H-pyrazol-3-yl)-phenol]",92 µM
3,"CN1N=C(c2ccc3ccccc3c2)CC1c1ccc(F)cc1 (centres unmarked) [Example 19, 5-(4-Fluoro-phenyl)-1-methyl-3-naphthalen-2-yl-4,5-dihydro-1H-pyrazole]",3.6 µM
4,"OCCN1N=C(c2ccccc2O)CC1c1ccccn1 (centres unmarked) [Example 12, 2-[1-(2-Hydroxy-ethyl)-5-pyridin-2-yl-4,5-dihydro-1H-pyrazol-3-yl]-phenol]",65 µM
5,"N#CCCN1N=C(c2ccccc2O)CC1c1ccccn1 (centres unmarked) [Example 13, 3-[3-(2-Hydroxy-phenyl)-5-pyridin-2-yl-4,5-dihydro-pyrazol-1-yl]-propionitrile]",18 µM
6,"COc1ccc(C2CC(c3ccccc3O)=NN2c2ccccn2)cc1 (centres unmarked) [Example 6, 2-[5-(4-Methoxy-phenyl)-1-pyridin-2-yl-4,5-dihydro-1H-pyrazol-3-yl]-phenol]",5.68 µM
7,"Clc1cccc(C2CC(c3ccccn3)=NN2c2ccccc2)c1 (centres unmarked) [Example 16, 2-[5-(3-Chloro-phenyl)-1-phenyl-4,5-dihydro-1H-pyrazol-3-yl]-pyridine]",1.7 µM
8,"CN1N=C(c2ccccc2O)CC1c1nccs1 (centres unmarked) [Example 11, 2-(1-Methyl-5-thiazol-2-yl-4,5-dihydro-1H-pyrazol-3-yl)-phenol]",12 µM
9,"COc1ccc(C2CC(c3ccc4ccccc4c3)=NN2C)cc1 (centres unmarked) [Example 18, 5-(4-Methoxy-phenyl)-1-methyl-3-naphthalen-2-yl-4,5-dihydro-1H-pyrazole]",11 µM
10,"CN1N=C(c2ccc3ccccc3c2)CC1c1ccc(C(F)(F)F)cc1 (centres unmarked) [Example 20, 1-Methyl-3-naphthalen-2-yl-5-(4-trifluoromethyl-phenyl)-4,5-dihydro-1H-pyrazole]",13 µM
11,"COc1ccccc1C1CC(c2ccccc2O)=NN1c1ccccn1 (centres unmarked) [Example 7, 2-[5-(2-Methoxy-phenyl)-1-pyridin-2-yl-4,5-dihydro-1H-pyrazol-3-yl]-phenol]",5.5 µM
12,"c1ccc(C2=NN(c3ccccn3)C(c3ccccc3)C2)cc1 (centres unmarked) [Example 2, 2-(3,5-Diphenyl-4,5-dihydro-pyrazol-1-yl)-pyridine]",6 µM
13,"CN(C)c1ccc(C2CC(c3ccccc3)=NN2c2ccccc2)cc1 (centres unmarked) [Example 17, [4-(2,5-Diphenyl-3,4-dihydro-2H-pyrazol-3-yl)-phenyl]-dimethyl-amine]",6 µM
14,"c1ccc(C2CC(c3ccccn3)=NN2c2ccccc2)cc1 (centres unmarked) [Example 1, 2-(1,5-Diphenyl-4,5-dihydro-1H-pyrazol-3-yl)-pyridine]",23 µM
15,"Oc1ccccc1C1=NN(c2ccccn2)C(c2ccccc2)C1 (centres unmarked) [Example 3, 2-(5-Phenyl-1-pyridin-2-yl-4,5-dihydro-1H-pyrazol-3-yl)-phenol]",1.7 µM
16,"Oc1ccccc1C1=NN(c2ccccn2)C(c2ccccn2)C1 (centres unmarked) [Example 8, 2-(1,5-Di-pyridin-2-yl-4,5-dihydro-1H-pyrazol-3-yl)-phenol]",5.4 µM
17,"Oc1ccccc1C1=NN(c2ccccn2)C(c2ccccc2O)C1 (centres unmarked) [Example 9, 2-[5(2-hydroxy-phenyl)-1-pyridin-2-yl-4,5-dihydro-1H-pyrazol-3-yl]-phenol]",5.4 µM
18,"Oc1ccccc1C1=NN(c2nc3ccccc3s2)C(c2ccccc2)C1 (centres unmarked) [Example 4, 2-(1-Benzothiazol-2-yl-5-phenyl-4,5-dihydro-1H-pyrazol-3-yl)-phenol]",27 µM
19,"Cc1ccc(N2N=C(c3ccccn3)CC2c2ccccc2)cc1 (centres unmarked) [Example 14, 2-(5-Phenyl-1-p-tolyl-4,5-dihydro-1H-pyrazol-3-yl)-pyridine]",2 µM
20,"Cc1ccc(C2CC(c3ccccc3O)=NN2c2ccccn2)cc1 (centres unmarked) [Example 5, 2-(1-Pyridin-2-yl-5-p-tolyl-4,5-dihydro-1H-pyrazol-3-yl)-phenol]",5.7 µM
